{
  "source": "patent US11192869B2",
  "about": "“CFTR regulators and methods of use thereof” (THE REGENTS OF THE UNIVERSITY OF CALIFORNIA, priority 2015, dated 2021)",
  "key": {"[1]": {"molecular_target": "T1, human wild-type CFTR (Homo sapiens, UniProt P13569)", "T1 construct": "expressed in transfected cells", "T1 sequence (P13569 whole entry)": "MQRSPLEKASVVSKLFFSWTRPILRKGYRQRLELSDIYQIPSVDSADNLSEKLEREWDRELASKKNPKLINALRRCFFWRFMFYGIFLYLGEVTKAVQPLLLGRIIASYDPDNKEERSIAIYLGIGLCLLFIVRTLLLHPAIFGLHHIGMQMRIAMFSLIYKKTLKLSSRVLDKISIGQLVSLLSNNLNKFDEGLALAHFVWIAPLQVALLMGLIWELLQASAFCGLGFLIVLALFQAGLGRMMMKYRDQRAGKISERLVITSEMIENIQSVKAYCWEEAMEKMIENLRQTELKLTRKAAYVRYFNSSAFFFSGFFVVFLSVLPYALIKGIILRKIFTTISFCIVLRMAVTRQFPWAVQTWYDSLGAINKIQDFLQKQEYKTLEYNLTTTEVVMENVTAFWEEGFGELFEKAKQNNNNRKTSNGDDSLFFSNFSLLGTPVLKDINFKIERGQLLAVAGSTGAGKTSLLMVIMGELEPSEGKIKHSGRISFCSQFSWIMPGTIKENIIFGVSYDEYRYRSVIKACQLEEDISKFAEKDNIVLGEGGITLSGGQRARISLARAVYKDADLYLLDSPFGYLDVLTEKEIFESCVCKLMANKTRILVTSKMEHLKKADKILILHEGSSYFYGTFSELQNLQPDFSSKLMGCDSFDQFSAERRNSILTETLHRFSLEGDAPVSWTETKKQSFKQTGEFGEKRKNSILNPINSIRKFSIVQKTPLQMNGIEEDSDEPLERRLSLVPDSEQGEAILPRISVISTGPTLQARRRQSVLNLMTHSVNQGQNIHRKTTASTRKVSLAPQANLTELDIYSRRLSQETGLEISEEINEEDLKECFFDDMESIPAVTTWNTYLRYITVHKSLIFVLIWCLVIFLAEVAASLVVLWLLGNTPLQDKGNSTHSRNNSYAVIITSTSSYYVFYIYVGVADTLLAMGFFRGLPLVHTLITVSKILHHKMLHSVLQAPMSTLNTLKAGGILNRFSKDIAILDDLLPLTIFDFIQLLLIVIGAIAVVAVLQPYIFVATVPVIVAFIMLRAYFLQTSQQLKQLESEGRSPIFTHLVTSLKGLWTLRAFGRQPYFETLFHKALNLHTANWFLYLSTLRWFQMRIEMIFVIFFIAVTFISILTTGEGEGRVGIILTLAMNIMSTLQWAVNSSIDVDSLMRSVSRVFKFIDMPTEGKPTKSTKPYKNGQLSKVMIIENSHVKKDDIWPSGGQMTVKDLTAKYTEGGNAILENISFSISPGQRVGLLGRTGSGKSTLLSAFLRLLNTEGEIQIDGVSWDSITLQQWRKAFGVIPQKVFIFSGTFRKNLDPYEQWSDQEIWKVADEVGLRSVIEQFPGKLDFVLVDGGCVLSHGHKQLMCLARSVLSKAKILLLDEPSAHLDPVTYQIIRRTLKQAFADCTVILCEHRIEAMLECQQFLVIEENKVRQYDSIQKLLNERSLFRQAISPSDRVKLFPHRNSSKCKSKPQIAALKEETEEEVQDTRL", "assay": "Short-circuit current in FRT cells expressing wild-type human CFTR", "type": "cell-based", "conditions": "for CFTR activation (in words): short-circuit current", "description": "Short-circuit current measurement. Short-circuit current was measured in FRT cells stably expressing wild-type human CFTR cultured on porous filters as described. The basolateral solution contained 130 mM NaCl, 2.7 mM KCl, 1.5 mM KH2PO4, 1 mM CaCl2, 0.5 mM MgCl2, 10 mM glucose, and 10 mM Na-HEPES (pH 7.3, 37° C.). In the apical solution 65 mM NaCl was replaced by Na gluconate, and CaCl2 was increased to 2 mM, and the basolateral membrane was permeabilized with 250 μg/ml amphotericin B. Short-circuit current was measured in freshly harvested adult mouse colon at 37° C. using symmetrical Krebs-bicarbonate buffer.\nShort-circuit current. Fischer rat thyroid (FRT) cells stably expressing wild-type human CFTR were cultured on Snapwell inserts (Corning Costar, Corning N.Y., USA) for short-circuit current (Isc) measurements. After 6-9 days in culture, when the transepithelial resistance was >1000 Ω/cm^2, the inserts were mounted in an Ussing chamber system (World Precision Instruments, Sarasota, Fla., USA). The basolateral solution contained 130 mM NaCl, 2.7 mM KCl, 1.5 mM KH2PO4, 1 mM CaCl2, 0.5 mM MgCl2, 10 mM glucose, and 10 mM Na-HEPES (pH 7.3). In the apical bathing solution, 65 mM NaCl was replaced by Na gluconate, and CaCl2 was increased to 2 mM. Both solutions were bubbled with air and maintained at 37° C. The basolateral membrane was permeabilized with 250 μg/ml amphotericin B (26, 27). Hemichambers were connected to a DVC-1000 voltage clamp via Ag/AgCl electrodes and 3 M KCl agar bridges for Isc recording."}, "[2]": {"test_system": "ocular surface", "assay": "Ocular surface potential difference measurements", "type": "in vivo, mouse", "conditions": "wild-type mice, 1-10 μM", "description": "Ocular surface potential difference measurements. Open-circuit transepithelial PD were measured continuously in anesthetized mice in response to serial perfusions of different solutions over the ocular surface, as described (21). Mice were anesthetized with Avertin (2,2,2-tribromoethanol, 125 mg/kg intraperitoneal, Sigma-Aldrich, St. Louis, Mo., USA), and core temperature was maintained at 37° C. using a heating pad. Eyes were oriented with the cornea and conjunctiva facing upward and exposed by retracting the eyelid with cross-action forceps. Solutions were isosmolar (320±10 mOsM; compositions provided in ref. 21) and contained 10μ[…] □ indomethacin to prevent CFTR activation by prostaglandins. The ocular surface was perfused at 6 mL/min through plastic tubing using a multireservoir gravity pinch-valve system (ALA Scientific, Westbury, N.Y., USA) and variable-flow peristaltic pump (medium flow model; Fisher Scientific, Fair Lawn, N.J., USA). A probe catheter was fixed 1 mm above the cornea using a micropositioner and a suction cannula was positioned 3 mm from the orbit. The measuring electrode was in contact to the perfusion catheter and connected to a high-impedance voltmeter (IsoMilivolt Meter; WPI). The reference electrode was grounded via a winged 21-gauge needle filled with isosmolar saline, and inserted subcutaneously in the abdomen. Measuring and reference electrodes consisted of Ag/AgCl with 3 M KCl agar bridges.\nOcular surface potential difference measurements. Open-circuit transepithelial PD were measured continuously in anesthetized mice in response to serial perfusions of different solutions over the ocular surface, as described (21). Mice were anesthetized with Avertin (2,2,2-tribromoethanol, 125 mg/kg intraperitoneal, Sigma-Aldrich, St. Louis, Mo., USA), and core temperature was maintained at 37° C. using a heating pad. Eyes were oriented with the cornea and conjunctiva facing upward and exposed by retracting the eyelid with cross-action forceps. […]"}, "[3]": {"test_system": "tear secretion", "assay": "Tear secretion (phenol red thread)", "type": "in vivo, mouse", "conditions": "for increase of tear fluid secretion: single topical dose, for (at least) four hours"}, "[4]": {"assay": "Ocular toxicity after chronic topical dosing (slit-lamp, lissamine green)", "type": "in vivo", "conditions": "chronically treated mice", "description": "(§1) Lissamine green staining. To assess corneal epithelial disruption, 5 μL of lissamine green (LG) dye (1%) was applied to the ocular surface of isofluorane-anesthetized mice. Photographs of the eye were taken using a Nikon Digital camera adapted to an Olympus Zoom Stereo Microscope (Olympus, Center Valley, Pa., USA). Each corneal quadrant was scored on a 3-point scale by one blinded, trained observer, with the extent of staining in each quadrant classified as: 0, no staining; 1, sporadic (involving <25% of the total surface) staining; grade 2, diffuse punctate staining (25-75%); and grade 3, coalesced punctate staining (>75%). The total grade is reported as the sum of scores from all four quadrants, ranging from 0 to 12."}, "[5]": {"test_system": "mouse model of aqueous-deficient dry eye produced by lacrimal gland excision", "assay": "Lacrimal gland excision (LGE) mouse model of dry eye", "type": "in vivo", "conditions": "0.1 nmol topically three times daily", "description": "Tear secretion. To measure unstimulated tear production, phenol red threads (Zone-Quick, Oasis Medical, Glendora, Calif., USA) were placed for 10 s in the lateral canthi of isofluorane-anesthetized mice using jewelers' forceps. Tear volume was measured as the length of thread wetting, as visualized under a dissecting microscope. Serial measurements were used to evaluate compound pharmacodynamics after application of 2-μL drops of compound formulations (50-100 μM compound in PBS containing 0.5% polysorbate and 0.5% DMSO) comparing to vehicle.\nas §1\nMouse model of dry eye produced by lacrimal gland excision. […]"}, "[6]": {"conditions": "mouse, in vivo, topical or ocular"}, "[7]": {"conditions": "mouse, in vivo"}, "[8]": {"assay": "Tear film pharmacokinetics by LC/MS", "conditions": "from quantity recovered vs EC50"}, "[9]": {"conditions": "juvenile rats; cited from earlier work"}, "[10]": {"test_system": "loperamide-induced mouse model of constipation", "assay": "Loperamide-induced mouse model of constipation"}, "[11]": {"conditions": "cited from earlier work"}},
  "note": "“Also recorded” adds a separate entry of the source. Like-named read-outs stand apart in the source and are kept apart here. Where a SMILES comes first, the peptide text is derived from it. Bridges are numbered along the chain shown (N, C = ends).",
  "data": [
    {"compound": "CCN(CC)c1nc(Nc2ccccc2)nc(OC(C(F)(F)F)C(F)(F)F)n1", "note": "[CFTRact-K089]", "values": [
      {"measurement": "CFTR activation", "setting": "[1]; Isc", "value": "~50", "unit": "% Vmax"},
      {"measurement": "CFTR activation (in words)", "setting": "[1]; wild-type CFTR", "value": "fully activated CFTR"},
      {"measurement": "change in ocular surface PD (in words)", "setting": "[2]", "value": "large hyperpolarizations"},
      {"measurement": "tear fluid secretion in CF mice", "setting": "[3]; CF mice", "value": "no effect"},
      {"measurement": "increase of tear fluid secretion", "setting": "[3]", "value": "doubled; also recorded: approximately two-fold"},
      {"measurement": "LG staining, corneal or conjunctival epithelial disruption", "setting": "[4]", "value": "no corneal or conjunctival epithelial disruption"},
      {"measurement": "ocular toxicity by slit-lamp evaluation", "setting": "[4]", "value": "no signs of ocular toxicity"},
      {"measurement": "corneal / ocular surface epithelial disruption after LGE", "setting": "[5]", "value": "prevents corneal epithelial disruption; also recorded: fully prevented; also recorded: prevented ocular surface epithelial disruption"},
      {"measurement": "tear secretion / tear volume after LGE", "setting": "[5]", "value": "restored tear secretion"},
      {"measurement": "tear film bioavailability (in words)", "setting": "[6]", "value": "sustained tear film bioavailability"},
      {"measurement": "systemic absorption (in words)", "setting": "[7]", "value": "without detectable systemic absorption"},
      {"measurement": "duration of therapeutic levels in tear fluid", "setting": "[8]", "value": "predicts therapeutic levels for at least six hours"}
    ]},
    {"compound": "CC(C)Cn1c(=O)n(C)c(=O)c2[nH]cnc21", "note": "[IBMX, 3-isobutyl-1-methylxanthine, reference compound]", "values": [
      {"measurement": "persistence of tear secretion effect", "setting": "[3]; after 2 hours", "value": "transient and undetectable after 2 hours"}
    ]},
    {"compound": "CC(C)(C)c1cc(C(C)(C)C)c(NC(=O)c2c[nH]c3ccccc3c2=O)cc1O", "note": "[VX-770, reference compound]", "values": [
      {"measurement": "CFTR activation (in words)", "setting": "[1]; wild-type CFTR", "value": "relatively little activity; also recorded: relatively weak activity"},
      {"measurement": "Emax", "setting": "[1]; wild-type CFTR, read-out: maximal activation of CFTR", "value": 15, "unit": "%"},
      {"measurement": "change in ocular surface PD (in words)", "setting": "[2]", "value": "minimal changes"},
      {"measurement": "increase of tear fluid secretion", "setting": "[3]", "value": "little tear secretion"},
      {"measurement": "adverse finding on chronic application", "setting": "[9]", "value": "cataracts"}
    ]},
    {"compound": "Cn1c(=O)c(-c2cc([N+](=O)[O-])ccc2N)nc2ccccc21", "note": "[inactive chemical analog of CFTRact-J027, reference compound]", "values": [
      {"measurement": "efficacy of inactive analog in wildtype mice", "setting": "[10]; loperamide model, wildtype mice", "value": "nor was an inactive chemical analog of CFTRact-J027 effective"}
    ]},
    {"compound": "C[C@@H]1NC(=O)[C@@H]2CCCN2C(=O)[C@H](CC(N)=O)NC(=O)[C@@H]2CSSC[C@H](N)C(=O)N[C@H]3CSSC[C@H](NC1=O)C(=O)N[C@@H]([C@@H](C)O)C(=O)NCC(=O)N[C@H](C(=O)N[C@@H](Cc1ccc(O)cc1)C(=O)O)CSSC[C@H](NC(=O)[C@H](Cc1ccc(O)cc1)NC(=O)[C@H](CCC(=O)O)NC3=O)C(=O)N2", "note": "[linaclotide, reference compound] (H-CCEYCCNPACTGCY-OH; disulfide 1-6, 2-10, 5-13)", "values": [
      {"measurement": "patients in whom effective", "setting": "[11]; chronic constipation patients", "value": "~20", "unit": "%"},
      {"measurement": "stool output, % of the maximal CFTRact-J027 response", "setting": "[10]; oral 0.5 mg/kg, loperamide-treated mice", "value": 35, "unit": "%"}
    ]},
    {"compound": "CCCCC(F)(F)[C@@]1(O)CC[C@H]2[C@@H](CC(=O)[C@@H]2CCCCCCC(=O)O)O1", "note": "[lubiprostone]", "values": [
      {"measurement": "patients in whom effective", "setting": "[11]; IBS-C patients", "value": "~13", "unit": "%"}
    ]},
    {"compound": "cholera toxin [reference compound]", "values": [
      {"measurement": "persistence of tear secretion effect", "setting": "[3]; mouse, in vivo", "value": "transient and undetectable after 2 hours"}
    ]}
  ]
}
